What was measured:
PIK3CB (Human) = PIK3CB (Human) (UniProt P42338); assay: Inhibition of PIK3CB Kinase Activity
PIK3CA (human) = PIK3CA (human) (UniProt P42336); assay: Inhibition of PIK3CA Kinase Activity
PIK3CA (human), sequence (P42336 whole entry, looked up): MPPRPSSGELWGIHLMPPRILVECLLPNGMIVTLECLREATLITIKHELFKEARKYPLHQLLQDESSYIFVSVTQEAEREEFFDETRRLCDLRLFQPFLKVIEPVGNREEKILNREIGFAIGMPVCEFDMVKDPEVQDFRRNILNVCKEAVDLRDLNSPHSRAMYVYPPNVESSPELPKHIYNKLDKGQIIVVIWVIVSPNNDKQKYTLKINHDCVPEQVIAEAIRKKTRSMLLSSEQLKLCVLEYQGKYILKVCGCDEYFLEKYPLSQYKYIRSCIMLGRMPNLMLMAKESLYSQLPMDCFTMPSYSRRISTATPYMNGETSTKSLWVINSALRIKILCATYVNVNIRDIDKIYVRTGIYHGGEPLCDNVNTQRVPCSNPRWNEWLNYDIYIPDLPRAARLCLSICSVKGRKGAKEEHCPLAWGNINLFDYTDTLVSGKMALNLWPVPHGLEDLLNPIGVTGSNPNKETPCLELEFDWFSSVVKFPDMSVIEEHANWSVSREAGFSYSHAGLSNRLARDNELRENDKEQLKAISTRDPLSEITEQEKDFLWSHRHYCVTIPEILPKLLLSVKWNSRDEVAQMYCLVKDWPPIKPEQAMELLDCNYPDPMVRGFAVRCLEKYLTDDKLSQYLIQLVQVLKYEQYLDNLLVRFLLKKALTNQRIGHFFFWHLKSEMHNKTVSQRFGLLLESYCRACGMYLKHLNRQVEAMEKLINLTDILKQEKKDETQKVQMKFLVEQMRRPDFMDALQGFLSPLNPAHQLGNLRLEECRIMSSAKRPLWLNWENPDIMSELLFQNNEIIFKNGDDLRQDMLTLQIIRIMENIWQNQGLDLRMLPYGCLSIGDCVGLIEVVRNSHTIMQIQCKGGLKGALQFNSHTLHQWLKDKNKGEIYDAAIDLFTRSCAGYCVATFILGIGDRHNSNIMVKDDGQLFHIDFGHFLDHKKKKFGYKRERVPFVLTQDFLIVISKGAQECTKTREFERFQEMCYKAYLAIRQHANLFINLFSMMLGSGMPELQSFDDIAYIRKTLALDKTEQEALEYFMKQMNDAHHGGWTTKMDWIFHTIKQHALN

PIK3CB (Human), sequence (P42338 whole entry, looked up): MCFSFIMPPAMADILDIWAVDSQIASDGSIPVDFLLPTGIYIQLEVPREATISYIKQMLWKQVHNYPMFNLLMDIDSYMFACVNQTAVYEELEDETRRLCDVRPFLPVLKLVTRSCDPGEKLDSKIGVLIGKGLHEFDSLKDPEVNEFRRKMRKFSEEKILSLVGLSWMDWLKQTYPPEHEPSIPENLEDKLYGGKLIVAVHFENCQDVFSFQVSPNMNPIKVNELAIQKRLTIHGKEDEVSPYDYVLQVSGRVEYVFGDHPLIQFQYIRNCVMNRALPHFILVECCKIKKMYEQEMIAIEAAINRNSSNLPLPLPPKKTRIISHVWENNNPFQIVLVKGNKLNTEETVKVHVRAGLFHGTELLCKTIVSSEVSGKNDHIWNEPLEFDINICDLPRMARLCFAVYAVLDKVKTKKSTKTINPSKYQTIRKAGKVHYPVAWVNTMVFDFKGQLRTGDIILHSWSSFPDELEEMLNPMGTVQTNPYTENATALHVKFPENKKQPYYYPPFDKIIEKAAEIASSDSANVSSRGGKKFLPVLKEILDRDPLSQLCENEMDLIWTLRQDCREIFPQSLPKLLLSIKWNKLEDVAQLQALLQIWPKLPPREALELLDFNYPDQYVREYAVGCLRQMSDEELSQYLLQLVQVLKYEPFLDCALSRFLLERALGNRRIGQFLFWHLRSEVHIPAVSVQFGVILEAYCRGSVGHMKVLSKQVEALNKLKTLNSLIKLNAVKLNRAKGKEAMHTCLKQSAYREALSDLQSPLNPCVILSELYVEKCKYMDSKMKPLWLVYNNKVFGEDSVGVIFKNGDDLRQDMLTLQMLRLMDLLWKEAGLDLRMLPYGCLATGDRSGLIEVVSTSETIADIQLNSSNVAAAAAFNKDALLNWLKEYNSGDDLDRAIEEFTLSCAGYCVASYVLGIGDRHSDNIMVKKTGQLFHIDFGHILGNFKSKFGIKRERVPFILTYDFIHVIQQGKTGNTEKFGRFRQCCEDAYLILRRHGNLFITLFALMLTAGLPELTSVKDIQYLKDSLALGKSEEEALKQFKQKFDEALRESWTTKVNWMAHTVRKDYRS

Compound | IC50 (PIK3CB (Human)) | IC50 (PIK3CA (human))
CC(=O)Nc1nc2ccc(-c3cccc(N)c3)nc2s1 | 13.3 µM | 
CC(=O)Nc1nc2ccc(-c3ccnc(N4CCC[C@@H]4c4ccccc4C)n3)cc2s1 | 0.777 µM | 1.56 µM
CC(=O)Nc1nc2ccc(-c3cnc(Cl)c(OC4CCOC4)c3)cc2s1 (stereo not drawn) | 2.87 µM | 0.169 µM
CC(=O)Nc1nc2ccc(-c3ccnc(N4CCC[C@@H]4c4ccccc4)n3)cc2s1 | 1.61 µM | 2.62 µM
CC(=O)Nc1nc2ccc(-c3cnc(Cl)c(OC(C)C)c3)cc2s1 | 0.472 µM | 0.0441 µM
COc1cc(-c2ccc3nc(NC(C)=O)sc3c2)cnc1Br | 13.3 µM | 
CC(=O)Nc1nc2ccc(-c3ccnc(OCCCN4CCOCC4)n3)cc2s1 | 11 µM | 
CC(=O)Nc1nc2ccc(-c3cnc(Cl)c(F)c3)cc2s1 | 13.3 µM | 
COc1ccc(COc2nccc(-c3ccc4nc(NC(C)=O)sc4c3)n2)cc1 | 13.3 µM | 
